From patent US6461997B1, “Triazole sulfones having herbicidal activity” (Monsanto Technology LLC, priority 1999, dated 2002)

Legend:
[1] = test system: DIGSA (large crabgrass); assay: Pre-plant incorporated (PPI) herbicidal activity, warm season; format: in vivo, Digitaria sanguinalis
Procedure: (§1) In another set of tests, the pre-plant incorporated (PPI) activity of compounds of this invention was evaluated on the same species as for the pre-emergence tests described above. In the PPI tests the following procedure, designed to simulate PPI application, was used.
(§2) A pre-prepared topsoil mixture (described above) was placed in a pot and compacted to a depth of 1.0 to 1.25 cm from the top of the pot. Seeds of each of several monocotyledonous and dicotyledonous annual plant species were placed on top of the soil. A sufficient quantity of soil to cover the seeds and level fill the pot was weighed into an open container. A known amount of the test compound was dissolved or suspended in an organic solvent and applied by spraying to this cover soil. The cover soil was thoroughly mixed to distribute the test compound throughout the cover soil, and was then applied as a cover layer over the seeds. Untreated soil was used as a cover layer for control pots. After treatment the plants were placed in a greenhouse where they received 0.64 cm of overhead irrigation. All subsequent watering consisted of a light overhead mist and/or subirrigation as needed for germination and growth. Tables 9 and 10 below relate to warm season plant species which were placed after pre-emergence treatment in a greenhouse with a 30/21° C. day/night temperature regime. Tables 11 and 12 below relates to cool season plant species placed after pre-emergence treatment in a greenhouse or growth chamber with an 18/13° C. day/night temperature regime. Only the compounds of Examples 1, 6, 8, 11, 13 and 15-20 were included in PPI tests.
(§3) Approximately 14 days after planting and treating, the plants were observed and herbicidal efficacy recorded as percent inhibition by comparison with untreated plants.

[2] = test system: corn (ZEAMX); assay: Selectivity test, PPI, warm season crop; format: in vivo, Zea mays; conditions: PPI application
Procedure: as §2, §3
(§4) Additional pre-emergence and PPI tests were conducted by the procedures described above, on warm and cool season weed species in the presence of crop species, to assess herbicidal selectivity. Crop species included in warm season tests were corn (Zea mays, ZEAMX), rice (Oryza sativa, ORYSA) and soybean (Glycine max, GLYMX). Crop species included in cool season tests were wheat (Triticum aestivum, TRZAW), barley (Hordeunm vulgare, HORVX) and oilseed rape (Brassica napus, BRSNS).
(§5) Tables 15 and 16 relate to pre-emergence and PPI tests respectively on warm season species. Table 17 relates to pre-emergence tests on cool season species.

[3] = test system: SORHA (johnsongrass (seedling)); assay: Pre-plant incorporated (PPI) herbicidal activity, warm season; format: in vivo, Sorghum halepense
Procedure: as §1, §2, §3

[4] = test system: ECHCG (barnyardgrass); assay: Pre-emergence herbicidal activity, warm season; format: in vivo, Echinochloa crus-galli; conditions: GR80 = lowest tested rate (300, 100, 30, 10 g/ha) with 80% or greater inhibition; approx. 14 days after treating; 30/21° C.
Procedure, shortened: (§6)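 GR80 values derive from percent inhibition relative to untreated plants, read roughly 14 days after sowing and pre-emergence soil-surface treatment (compound in 50:50 acetone/water; rates typically 10, 30, 100, 300 g/ha). Warm-season weeds grew at 30/21° C day/night, cool-season ones at 18/13° C; an asterisk marks activity without reaching 80% at the highest rate.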

[5] = test system: SETFA (giant foxtail); assay: Pre-plant incorporated (PPI) herbicidal activity, warm season; format: in vivo, Setaria faberi
Procedure: as §1, §2, §3

[6] = test system: GALAP (catchweed bedstraw); assay: Pre-emergence herbicidal activity, cool season; format: in vivo, Galium aparine; conditions: lowest tested rate with 80% or greater inhibition; rates 300, 100, 30, 10 g/ha; about 14 days
Procedure, shortened: as §6

[7] = test system: ALOMY (blackgrass); assay: Pre-emergence herbicidal activity, cool season; format: in vivo, Alopecurus myosuroides; conditions: GR80 = lowest tested rate (300, 100, 30, 10 g/ha) with 80% or greater inhibition; approx. 14 days after treating; 18/13° C.
Procedure, shortened: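 Pre-emergence soil-surface spray; rates 300/100/30/10 g/ha; acetone:water 50:50 diluent. Warm-season species (PANMI, DIGSA) grown at 30/21 °C, cool-season species (ALOMY, POLCO) at 18/13 °C. Inhibition scored ~14 d after treatment versus untreated controls → GR80.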

[8] = test system: VERPE (creeping speedwell); assay: Pre-emergence herbicidal activity, cool season; format: in vivo, Veronica persicaria; conditions: lowest tested rate with 80% or greater inhibition; rates 300, 100, 30, 10 g/ha; about 14 days
Procedure, shortened: as §6

[9] = test system: barley (HORVX); assay: Selectivity test, PPI, cool season crop; format: in vivo, Hordeunm vulgare; conditions: PPI application
Procedure: as §2, §3, §4, §5

[10] = test system: SINAR (wild mustard); assay: Pre-plant incorporated (PPI) herbicidal activity, cool season; format: in vivo, Sinapis arvensis
Procedure: as §1, §2, §3

[11] = test system: SETFA (giant foxtail); assay: Pre-emergence herbicidal activity, warm season; format: in vivo, Setaria faberi; conditions: GR80 = lowest tested rate (300, 100, 30, 10 g/ha) with 80% or greater inhibition; approx. 14 days after treating; 30/21° C.
Procedure, shortened: as §6

[12] = weed, PPI application, 100 g/ha
[13] = weed, PPI application, 300 g/ha
[14] = weed, PPI application, 900 g/ha
[15] = pre-plant incorporated, lowest tested rate with 80% or greater inhibition, about 14 days

SMILES: CCN(CC)C(=O)n1cnc(S(=O)(=O)C(F)(F)Cl)n1 [Example 3]
- Percent inhibition DIGSA ([1]; PPI application, 30 g/ha): 70%
- Percent inhibition DIGSA ([1]; PPI application, 100 g/ha): 100%
- Percent inhibition DIGSA ([1]; PPI application, 300 g/ha): 100%
- Percent inhibition DIGSA ([1]; PPI application, 900 g/ha): 100%
- Percent inhibition ZEAMX ([2]; 30 g/ha): 5%
- Percent inhibition ZEAMX ([2]; 100 g/ha): 10%
- Percent inhibition ZEAMX ([2]; 300 g/ha): 30%
- Percent inhibition ZEAMX ([2]; 900 g/ha): 55%
- Percent inhibition SORHA ([3]; PPI application, 30 g/ha): 99%
- Percent inhibition SORHA ([3]; PPI application, 100 g/ha): 100%
- Percent inhibition SORHA ([3]; PPI application, 300 g/ha): 100%
- Percent inhibition SORHA ([3]; PPI application, 900 g/ha): 100%
- Pre-emergence activity (GR80) ECHCG [4]: 30 g/ha
- Percent inhibition SETFA ([5]; PPI application, 30 g/ha): 100%
- Percent inhibition SETFA ([5]; PPI application, 100 g/ha): 100%
- Percent inhibition SETFA ([5]; PPI application, 300 g/ha): 100%
- Percent inhibition SETFA ([5]; PPI application, 900 g/ha): 100%
- Pre-emergence activity GR80, GALAP [6]: 100 g/ha
- Pre-emergence activity (GR80) ALOMY [7]: 100 g/ha
- Pre-emergence activity GR80, VERPE [8]: 100 g/ha
- Percent inhibition HORVX ([9]; 30 g/ha): 0%
- Percent inhibition HORVX ([9]; 100 g/ha): 0%
- Percent inhibition HORVX ([9]; 300 g/ha): 10%
- Percent inhibition HORVX ([9]; 900 g/ha): 80%
- Percent inhibition SINAR ([10]; weed, PPI application, 30 g/ha): 100%
- Percent inhibition SINAR [10, 12]: 100%
- Percent inhibition SINAR [10, 13]: 100%
- Percent inhibition SINAR [10, 14]: 100%
- Pre-emergence activity (GR80) SETFA [11]: 100 g/ha

SMILES: CCN(CC)C(=O)n1cnc(S(=O)(=O)C(F)(F)C(F)(F)Br)n1 [Example 4]
- Percent inhibition DIGSA ([1]; PPI application, 30 g/ha): 85%
- Percent inhibition DIGSA ([1]; PPI application, 100 g/ha): 90%
- Percent inhibition DIGSA ([1]; PPI application, 300 g/ha): 100%
- Percent inhibition DIGSA ([1]; PPI application, 900 g/ha): 100%
- Percent inhibition ZEAMX ([2]; 30 g/ha): 0%
- Percent inhibition ZEAMX ([2]; 100 g/ha): 5%
- Percent inhibition ZEAMX ([2]; 300 g/ha): 40%
- Percent inhibition ZEAMX ([2]; 900 g/ha): 50%
- Percent inhibition SORHA ([3]; PPI application, 30 g/ha): 60%
- Percent inhibition SORHA ([3]; PPI application, 100 g/ha): 100%
- Percent inhibition SORHA ([3]; PPI application, 300 g/ha): 100%
- Percent inhibition SORHA ([3]; PPI application, 900 g/ha): 100%
- Pre-emergence activity (GR80) ECHCG [4]: 100 g/ha
- Percent inhibition SETFA ([5]; PPI application, 30 g/ha): 100%
- Percent inhibition SETFA ([5]; PPI application, 100 g/ha): 100%
- Percent inhibition SETFA ([5]; PPI application, 300 g/ha): 100%
- Percent inhibition SETFA ([5]; PPI application, 900 g/ha): 100%
- Pre-emergence activity GR80, GALAP [6]: 100 g/ha
- Pre-emergence activity (GR80) ALOMY [7]: 300 g/ha
- Pre-emergence activity GR80, VERPE [8]: 10 g/ha
- Percent inhibition HORVX ([9]; 30 g/ha): 0%
- Percent inhibition HORVX ([9]; 100 g/ha): 0%
- Percent inhibition HORVX ([9]; 300 g/ha): 50%
- Percent inhibition HORVX ([9]; 900 g/ha): 90%
- Percent inhibition SINAR ([10]; weed, PPI application, 30 g/ha): 95%
- Percent inhibition SINAR [10, 12]: 100%
- Percent inhibition SINAR [10, 13]: 100%
- Percent inhibition SINAR [10, 14]: 100%
- Pre-emergence activity (GR80) SETFA [11]: 30 g/ha

SMILES: CCSC(F)(F)S(=O)(=O)c1ncn(C(=O)N(CC)CC)n1 [Example 8, 1-(N,N-diethylcarbamoyl)-3-[difluoro(ethylthio)methylsulfonyl]-1,2,4-triazole]
- inhibition at 30 g/ha ([1]; Digitaria sanguinalis, PPI application, 30 g/ha, read-out: Percent inhibition DIGSA): 100%
- inhibition at 100 g/ha ([1]; Digitaria sanguinalis, PPI application, 100 g/ha, read-out: Percent inhibition DIGSA): 100%
- inhibition at 300 g/ha ([1]; Digitaria sanguinalis, PPI application, 300 g/ha, read-out: Percent inhibition DIGSA): 100%
- inhibition at 900 g/ha ([1]; Digitaria sanguinalis, PPI application, 900 g/ha, read-out: Percent inhibition DIGSA): 100%
- PPI activity GR80, DIGSA [1, 15]: 30 g/ha
- inhibition at 30 g/ha ([2]; Zea mays, 30 g/ha, read-out: Percent inhibition ZEAMX): 0%
- inhibition at 100 g/ha ([2]; Zea mays, 100 g/ha, read-out: Percent inhibition ZEAMX): 5%
- inhibition at 300 g/ha ([2]; Zea mays, 300 g/ha, read-out: Percent inhibition ZEAMX): 65%
- inhibition at 900 g/ha ([2]; Zea mays, 900 g/ha, read-out: Percent inhibition ZEAMX): 95%
- inhibition at 30 g/ha ([3]; Sorghum halepense, PPI application, 30 g/ha, read-out: Percent inhibition SORHA): 100%
- inhibition at 100 g/ha ([3]; Sorghum halepense, PPI application, 100 g/ha, read-out: Percent inhibition SORHA): 90%
- inhibition at 300 g/ha ([3]; Sorghum halepense, PPI application, 300 g/ha, read-out: Percent inhibition SORHA): 100%
- inhibition at 900 g/ha ([3]; Sorghum halepense, PPI application, 900 g/ha, read-out: Percent inhibition SORHA): 100%
- PPI activity GR80, SORHA [3, 15]: 30 g/ha
- Pre-emergence activity (GR80) ECHCG [4]: 100 g/ha
- inhibition at 30 g/ha ([5]; Setaria faberi, PPI application, 30 g/ha, read-out: Percent inhibition SETFA): 90%
- inhibition at 100 g/ha ([5]; Setaria faberi, PPI application, 100 g/ha, read-out: Percent inhibition SETFA): 100%
- inhibition at 300 g/ha ([5]; Setaria faberi, PPI application, 300 g/ha, read-out: Percent inhibition SETFA): 100%
- inhibition at 900 g/ha ([5]; Setaria faberi, PPI application, 900 g/ha, read-out: Percent inhibition SETFA): 100%
- PPI activity GR80, SETFA [5, 15]: 30 g/ha
- Pre-emergence activity GR80, GALAP [6]: [empty]
- Pre-emergence activity (GR80) ALOMY [7]: 100 g/ha
- Pre-emergence activity GR80, VERPE [8]: 30 g/ha
- inhibition at 30 g/ha ([9]; Hordeum vulgare, 30 g/ha, read-out: Percent inhibition HORVX): 0%
- inhibition at 100 g/ha ([9]; Hordeum vulgare, 100 g/ha, read-out: Percent inhibition HORVX): 0%
- inhibition at 300 g/ha ([9]; Hordeum vulgare, 300 g/ha, read-out: Percent inhibition HORVX): 10%
- inhibition at 900 g/ha ([9]; Hordeum vulgare, 900 g/ha, read-out: Percent inhibition HORVX): 60%
- inhibition at 30 g/ha ([10]; Brassica, weed, PPI application, 30 g/ha, read-out: Percent inhibition SINAR): 100%
- inhibition at 100 g/ha ([10]; Brassica, weed, PPI application, 100 g/ha, read-out: Percent inhibition SINAR): 95%
- inhibition at 300 g/ha ([10]; Brassica, weed, PPI application, 300 g/ha, read-out: Percent inhibition SINAR): 100%
- inhibition at 900 g/ha ([10]; Brassica, weed, PPI application, 900 g/ha, read-out: Percent inhibition SINAR): 80%
- PPI activity GR80, SINAR [10, 15]: 100 g/ha
- Pre-emergence activity (GR80) SETFA [11]: 100 g/ha
